Measurements from patent US11827627B2, “N-(hydroxyalkyl (hetero)aryl) tetrahydrofuran carboxamides as modulators of sodium channels” (VERTEX PHARMACEUTICALS INCORPORATED, priority 2021, dated 2023).

Target: human NaV 1.8 (Homo sapiens, UniProt Q9Y5Y9)
Test: E-VIPR assay detecting and measuring NaV inhibition properties
Assay type: cell-based
Conditions: HEK cells expressing a truncated form of human NaV 1.8; electrical stimulation, membrane potential FRET dyes
Excerpt: E-VIPR Assay Detecting and Measuring NaV Inhibition Properties
Sodium ion channels are voltage-dependent proteins that can be activated by inducing membrane voltage changes by applying electric fields. The electrical stimulation instrument and methods of use, referred to as E-VIPR, are described in International Publication No. WO 2002/008748 A3 and C.-J. Huang et al. Characterization of voltage-gated sodium channel blockers by electrical stimulation and fluorescence detection of membrane potential, 24 Nature Biotech. 439-46 (2006), both of which are incorporated by reference in their entirety. The instrument comprises a microtiter plate handler, an optical system for exciting the coumarin dye while simultaneously recording the coumarin and oxonol emissions, a waveform generator, a current- or voltage-controlled amplifier, and parallel electrode pairs that are inserted into assay plate wells. Under integrated computer control, this instrument passes user-programmed electrical stimulus protocols to cells within the wells of the microtiter plate.
16-20 hours prior to running the assay on E-VIPR, HEK cells expressing a truncated form of human NaV 1.8 with full channel activity were seeded into microtiter 384-well plates, pre-coated with matrigel, at a density of 25,000 cells per well. 2.5-5% KIR2.1 Bacmam virus was added to the final cell suspension before seeding into cell plates. HEK cells were grown in Dulbecco's Modified Eagle's Medium (DMEM) supplemented with 10% FBS (Fetal Bovine Serum, qualified; Sigma #F4135), 1% NEAA (Non-Essential Amino Acids, Gibco #11140), 1% HEPES (Gibco #15630), 1% Pen-Strep (Penicillin-Streptomycin; Gibco #15140) and 5 μg/ml Blasticidin (Gibco #R210-01). Cells were expanded in vented cap cell culture flasks, with 90-95% humidity and 5% CO2.
Reagents and Stock Solutions:
100 mg/mL Pluronic F-127 (Sigma #P2443), in dry DMSO
Compound Plates: Corning 384-well Polypropylene Round Bottom #3656
Cell Plates: 384-well tissue culture treated plates (Greiner #781091-2B)
2.5-5% KIR 2.1 Bacmam virus (produced in-house), prepared as described in Section 3.3 of J. A. Fornwald et al., Gene Expression in Mammalian Cells Using BacMam, a Modified Baculovirus System, 1350 Methods in Molecular Biology 95-116 (2016), the entire contents of which are incorporated by reference. The concentration used can be dependent on viral titer of each batch.
5 mM DiSBAC6(3), a voltage sensitive oxonol acceptor (CAS number 169211-44-3; 5-[3-(1,3-dihexylhexahydro-4,6-dioxo-2-thioxo-5-pyrimidinyl)-2-propen-1-ylidene]-1,3-dihexyldihydro-2-thioxo-4,6(1H,5H)-pyrimidinedione), in dry DMSO. The preparation of DiSBAC6(3) is analogous to that of DiSBAC4(3) as described in Voltage Sensing by Fluorescence Resonance Energy Transfer in Single Cells, Gonzalez, J. E. and Tsien, R. Y. (1995) Biophys. J. 69, 1272-1280.
5 mM CC2-DMPE, a commercially available membrane-bound coumarin phospholipid FRET donor (ThermoFisher Scientific catalog number K1017, CAS number 393782-57-5; tetradecanoic acid, 1,1′-[(1R)-1-[8-(6-chloro-7-hydroxy-2-oxo-2H-1-benzopyran-3-yl)-3-hydroxy-3-oxido-8-oxo-2,4-dioxa-7-aza-3-phosphaoct-1-yl]-1,2-ethanediyl]ester) was prepared in dry DMSO. See also, Improved indicators of cell membrane potential that use fluorescence resonance energy transfer, Gonzalez, J. E. and Tsien, R. Y. (1997) Chem. Biol. 4, 269-277.
Voltage Assay Background Suppression Compound (VABSC-1) is prepared in H2O (89-363 mM, range used to maintain solubility)
Human Serum (HS, Millipore #S1P1-01KL, or Sigma SLBR5469V and SLBR5470V as a 50%/50% mixture, for 25% assay final concentration)
Bath 1 Buffer: • Sodium Chloride 160 mM (9.35 g/L), Potassium Chloride, 4.5 mM (0.335 g/L), Glucose 10 mM (1.8 g/L), Magnesium Chloride (Anhydrous) 1 mM (0.095 g/L), Calcium Chloride 2 mM (0.222 g/L), HEPES 10 mM (2.38 g/L) in water. […]

human NaV 1.8, sequence (Q9Y5Y9 126-1722 limits assumed): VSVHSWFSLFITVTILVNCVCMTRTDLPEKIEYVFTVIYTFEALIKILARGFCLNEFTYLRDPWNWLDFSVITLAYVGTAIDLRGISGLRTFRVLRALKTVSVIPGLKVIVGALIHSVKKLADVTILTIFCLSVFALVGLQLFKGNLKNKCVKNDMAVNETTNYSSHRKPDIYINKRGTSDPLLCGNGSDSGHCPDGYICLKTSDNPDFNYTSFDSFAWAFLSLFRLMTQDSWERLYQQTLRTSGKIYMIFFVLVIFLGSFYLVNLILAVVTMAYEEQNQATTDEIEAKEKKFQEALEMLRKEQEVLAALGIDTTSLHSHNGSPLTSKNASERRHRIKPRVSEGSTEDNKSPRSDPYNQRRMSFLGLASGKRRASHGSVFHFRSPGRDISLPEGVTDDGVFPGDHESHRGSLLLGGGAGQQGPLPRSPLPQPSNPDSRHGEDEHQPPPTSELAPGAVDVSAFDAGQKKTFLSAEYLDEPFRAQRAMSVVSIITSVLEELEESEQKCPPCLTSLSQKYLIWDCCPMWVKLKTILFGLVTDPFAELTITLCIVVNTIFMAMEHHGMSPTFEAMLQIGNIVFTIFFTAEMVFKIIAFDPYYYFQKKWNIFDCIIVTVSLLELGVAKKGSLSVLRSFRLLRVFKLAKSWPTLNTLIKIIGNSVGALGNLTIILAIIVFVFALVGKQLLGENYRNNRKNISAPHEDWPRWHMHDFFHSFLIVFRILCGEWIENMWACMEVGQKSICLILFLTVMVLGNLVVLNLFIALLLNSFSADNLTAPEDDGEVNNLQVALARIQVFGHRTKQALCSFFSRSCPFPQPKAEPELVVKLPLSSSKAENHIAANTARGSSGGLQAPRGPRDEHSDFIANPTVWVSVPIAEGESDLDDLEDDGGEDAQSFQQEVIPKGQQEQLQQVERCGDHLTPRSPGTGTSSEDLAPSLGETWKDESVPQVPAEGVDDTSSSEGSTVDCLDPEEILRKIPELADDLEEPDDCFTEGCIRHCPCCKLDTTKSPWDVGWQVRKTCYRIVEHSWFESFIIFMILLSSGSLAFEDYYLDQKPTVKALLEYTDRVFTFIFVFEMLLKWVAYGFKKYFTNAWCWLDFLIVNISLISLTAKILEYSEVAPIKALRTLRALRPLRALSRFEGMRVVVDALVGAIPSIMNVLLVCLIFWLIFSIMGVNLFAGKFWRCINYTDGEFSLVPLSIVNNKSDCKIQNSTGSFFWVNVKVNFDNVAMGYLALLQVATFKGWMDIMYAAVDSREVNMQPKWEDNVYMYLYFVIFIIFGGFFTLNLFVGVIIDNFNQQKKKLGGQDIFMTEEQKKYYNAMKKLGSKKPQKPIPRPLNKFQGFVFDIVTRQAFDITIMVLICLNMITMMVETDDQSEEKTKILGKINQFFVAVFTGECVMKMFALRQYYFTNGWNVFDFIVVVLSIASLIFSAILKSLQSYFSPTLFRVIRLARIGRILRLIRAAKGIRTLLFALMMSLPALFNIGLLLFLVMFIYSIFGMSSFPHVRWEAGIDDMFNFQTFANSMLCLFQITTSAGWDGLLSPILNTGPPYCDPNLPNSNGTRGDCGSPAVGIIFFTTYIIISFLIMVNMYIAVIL

| IC50 [nM] | Compound |
| --- | --- |
| 100 to 1000 | CCOc1c([C@@H]2C[C@](C)(C(F)(F)F)O[C@H]2C(=O)Nc2ccc([C@H](O)CO)nc2)ccc(F)c1F (single isomer, unassigned) [Compound 33, rel-(2R,3S,5R)-N-(6-((S*)-1,2-dihydroxyethyl)pyridin-3-yl)-3-(2-ethoxy-3,4-difluorophenyl)-5-methyl-5-(trifluoromethyl)tetrahydrofuran-2-carboxamide] |
| ≥ 1000 | CCOc1c([C@H]2C[C@@](C)(C(F)(F)F)O[C@@H]2C(=O)Nc2ccc([C@@H](O)CO)nc2)ccc(F)c1F (single isomer, unassigned) [Compound 34, rel-(2S,3R,5S)-N-(6-((R*)-1,2-dihydroxyethyl)pyridin-3-yl)-3-(2-ethoxy-3,4-difluorophenyl)-5-methyl-5-(trifluoromethyl)tetrahydrofuran-2-carboxamide] |
| 10 to 100 | CCOc1c([C@@H]2C[C@](C)(C(F)(F)F)O[C@H]2C(=O)Nc2ccc([C@@H](O)CO)nc2)ccc(F)c1F (single isomer, unassigned) [Compound 35, rel-(2R,3S,5R)-N-(6-((R*)-1,2-dihydroxyethyl)pyridin-3-yl)-3-(2-ethoxy-3,4-difluorophenyl)-5-methyl-5-(trifluoromethyl)tetrahydrofuran-2-carboxamide] |
| < 10 | CCOc1c([C@H]2[C@H](C(=O)Nc3ccc([C@@H](O)CO)nc3)O[C@@](C)(C(F)(F)F)[C@H]2C)ccc(F)c1C (single isomer, unassigned) [Compound 40, rel-(2R,3S,4S,5R)—N-(6-((R*)-1,2-dihydroxyethyl)pyridin-3-yl)-3-(2-ethoxy-4-fluoro-3-methylphenyl)-4,5-dimethyl-5-(trifluoromethyl)tetrahydrofuran-2-carboxamide] |
| ≥ 1000 | CCOc1c([C@@H]2[C@@H](C(=O)Nc3ccc([C@@H](O)CO)nc3)O[C@](C)(C(F)(F)F)[C@@H]2C)ccc(F)c1C (single isomer, unassigned) [Compound 41, rel-(2S,3R,4R,5S)—N-(6-((R*)-1,2-dihydroxyethyl)pyridin-3-yl)-3-(2-ethoxy-4-fluoro-3-methylphenyl)-4,5-dimethyl-5-(trifluoromethyl)tetrahydrofuran-2-carboxamide] |
| < 10 | CCOc1c([C@H]2[C@H](C(=O)Nc3ccc([C@H](O)CO)nc3)O[C@@](C)(C(F)(F)F)[C@H]2C)ccc(F)c1C (single isomer, unassigned) [Compound 42, rel-(2R,3S,4S,5R)-N-(6-((S*)-1,2-dihydroxyethyl)pyridine-3-yl)-3-(2-ethoxy-4-fluoro-3-methylphenyl)-4,5-dimethyl-5-(trifluoromethyl)tetrahydrofuran-2-carboxamide] |
| ≥ 1000 | CCOc1c([C@@H]2[C@@H](C(=O)Nc3ccc([C@H](O)CO)nc3)O[C@](C)(C(F)(F)F)[C@@H]2C)ccc(F)c1C (single isomer, unassigned) [Compound 43, rel-(2S,3R,4R,5S)-N-(6-((S*)-1,2-dihydroxyethyl)pyridin-3-yl)-3-(2-ethoxy-4-fluoro-3-methylphenyl)-4,5-dimethyl-5-(trifluoromethyl)tetrahydrofuran-2-carboxamide] |
| ≥ 1000 | COc1c(C2C(C(=O)Nc3ccc(C(O)CO)nc3)OC(C)(C(F)(F)F)C2C)ccc(F)c1C (single isomer, unassigned) [Compound 44, rel-(2S,3R,4R,5S)-N-(6-((S*)-1,2-dihydroxyethyl)138yridine-3-yl)-3-(4-fluoro-2-methoxy-3-methylphenyl)-4,5-dimethyl-5-(trifluoromethyl)tetrahydrofuran-2-carboxamide] |
| 10 to 100 | COc1c([C@H]2[C@H](C(=O)Nc3ccc([C@H](O)CO)nc3)O[C@@](C)(C(F)(F)F)[C@H]2C)ccc(F)c1C (single isomer, unassigned) [Compound 45, rel-(2R,3S,4S,5R)-N-(6-((S*)-1,2-dihydroxyethyl)pyridin-3-yl)-3-(4-fluoro-2-methoxy-3-methylphenyl)-4,5-dimethyl-5-(trifluoromethyl)tetrahydrofuran-2-carboxamide] |
| ≥ 1000 | COc1c([C@@H]2[C@@H](C(=O)Nc3ccc([C@@H](O)CO)nc3)O[C@](C)(C(F)(F)F)[C@@H]2C)ccc(F)c1C (single isomer, unassigned) [Compound 46, rel-(2S,3R,4R,5S)-N-(6-((R*)-1,2-dihydroxyethyl)pyridin-3-yl)-3-(4-fluoro-2-methoxy-3-methylphenyl)-4,5-dimethyl-5-(trifluoromethyl)tetrahydrofuran-2-carboxamide] |
| < 10 | COc1c([C@H]2[C@H](C(=O)Nc3ccc([C@@H](O)CO)nc3)O[C@@](C)(C(F)(F)F)[C@H]2C)ccc(F)c1C (single isomer, unassigned) [Compound 47, rel-(2R,3S,4S,5R)-N-(6-((R*)-1,2-dihydroxyethyl)pyridin-3-yl)-3-(4-fluoro-2-methoxy-3-methylphenyl)-4,5-dimethyl-5-(trifluoromethyl)tetrahydrofuran-2-carboxamide] |
| ≥ 1000 | COc1c([C@@H]2[C@@H](C(=O)Nc3ccc([C@H](O)CO)nc3)O[C@](C)(C(F)(F)F)[C@@H]2C)ccc(F)c1C(F)F (single isomer, unassigned) [Compound 48, rel-(2S,3R,4R,5S)-3-(3-(difluoromethyl)-4-fluoro-2-methoxyphenyl)-N-(6-((S*)-1,2-dihydroxyethyl)pyridin-3-yl)-4,5-dimethyl-5-(trifluoromethyl)tetrahydrofuran-2-carboxamide] |
| < 10 | COc1c([C@H]2[C@H](C(=O)Nc3ccc([C@H](O)CO)nc3)O[C@@](C)(C(F)(F)F)[C@H]2C)ccc(F)c1C(F)F (single isomer, unassigned) [Compound 49, rel-(2R,3S,4S,5R)-3-(3-(difluoromethyl)-4-fluoro-2-methoxyphenyl)-N-(6-((S*)-1,2-dihydroxyethyl)pyridin-3-yl)-4,5-dimethyl-5-(trifluoromethyl)tetrahydrofuran-2-carboxamide] |
| ≥ 1000 | COc1c(C2C(C(=O)Nc3ccc(C(O)CO)nc3)OC(C)(C(F)(F)F)C2C)ccc(F)c1C(F)F (single isomer, unassigned) [Compound 50] |
| < 10 | COc1c(C2C(C(=O)Nc3ccc(C(O)CO)nc3)OC(C)(C(F)(F)F)C2C)ccc(F)c1C(F)F (single isomer, unassigned) [Compound 51] |
| ≥ 1000 | COc1c(C2C(C(=O)Nc3ccc(CO)nc3)OC(C)(C(F)(F)F)C2C)ccc(F)c1C(F)F (single isomer, unassigned) [Compound 52] |
| < 10 | COc1c(C2C(C(=O)Nc3ccc(CO)nc3)OC(C)(C(F)(F)F)C2C)ccc(F)c1C(F)F (single isomer, unassigned) [Compound 53] |
| < 10 | COc1c(C2C(C(=O)Nc3cnc(CO)nc3)OC(C)(C(F)(F)F)C2C)ccc(F)c1C(F)F (single isomer, unassigned) [Compound 54] |
| 100 to 1000 | COc1c(C2C(C(=O)Nc3cnc(CO)nc3)OC(C)(C(F)(F)F)C2C)ccc(F)c1C(F)F (single isomer, unassigned) [Compound 55] |
| ≥ 1000 | COc1c([C@@H]2[C@@H](C(=O)Nc3ccc(C(C)O)nc3)O[C@](C)(C(F)(F)F)[C@@H]2C)ccc(F)c1C(F)F (single isomer, unassigned) [Compound 57] |
